Experimental data published in patent publication US12448400B2, “KRAS G12D modulating compounds” (priority 2023, dated 2025).
pEC50, pIC50: −log10 of the molar value. Like-named read-outs stand apart in the source and are kept apart here.

Assays:
GDP-loaded KRAS G12D = GDP-loaded KRAS G12D (Homo sapiens, UniProt P01116, G12D); assay: KRAS G12D (GDP) biochemical assay, TR-FRET probe displacement; format: binding; settings: 0.5 nM enzyme, 30 min pre-incubation, 2 h incubation, TR-FRET ratio; read-out: G12D IC50
Protocol: Example A. KRAS G12D (GDP) Biochemical Assay
Compounds were tested for binding to GDP-loaded KRAS G12D in a 384-well assay format using a TR-FRET probe displacement assay in buffer consisting of 50 mM Hepes (pH 7.4), 150 mM NaCl, 5 mM MgCl2 and 0.005% Tween-20. […] Compounds were serially diluted (1:3) in DMSO. The LabCyte ECHO Acoustic dispenser system was used to pre-spot the assay plates (384-well Non-Binding Surface plates, Corning, Catalog #3824) with 50 nL of compound. The compounds were pre-incubated with 5 μL of 2× final enzyme concentration for 30 minutes before adding 5 μL of 2× final concentration of Eu-streptavidin and TR-FRET probe (10 μL final reaction volume). The plates were incubated at room temperature for 2 hours before measuring TR-FRET ratio on the Envision plate reader. IC50 values were defined as the compound concentration that causes a 50% decrease in TR-FRET ratio and were calculated using a sigmoidal dose-response model to generate curve fits.

GP2D (KRAS G12D) cells = assay: 2D cell viability assay (CellTiter-Glo); format: cell-based; settings: GP2D cells, 4 days, CellTiter-Glo luminescence, read-out: G12D 2D EC50
Summary of the method: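 GP2D (KRAS G12D) cells, 1000/well in RPMI + 10% FBS, were plated onto compound (1:3 DMSO series) and grown 4 days at 37 °C, 5% CO2 in 2D. CellTiter-Glo luminescence was read; EC50 is the concentration giving 50% signal decrease, from sigmoidal fit.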

[1] = Mouse oral cassette pharmacokinetics; format: in vivo, male CD-1 mice
Protocol: Mouse Oral Cassette Pharmacokinetics
Test compounds (1-3 compounds per cassette) were formulated in solution formulations (10 w/v % Captisol in 50 mM Citrate buffer) and administered orally at 30 mg-eq./kg each compound to a group of four male CD-1 mice. The test articles were administrated by oral gavage at a dose volume of 10 mL-eq/kg.
Blood samples were collected at 0.5, 1, 3, 6, 8, and 24 hours post dose into K2EDTA tubes and stored on wet ice until processed. Whole blood was processed to plasma by centrifugation (3500 rpm for 10 minutes at 5° C.) within 30 minutes of collection. Plasma samples were placed in Micronic 96 well tubes and stored at −80° C. until transferred. Plasma concentration of the test compounds was determined by LC-MS/MS. Pharmacokinetic parameters were estimated using non-compartment model analysis. The maximum observed concentration (Cmax) and area under the curve from time of dosing to last measured concentration (AUClast) were calculated and reported.

[2] = male, CD-1, mouse, in vivo, po, 30 mg/kg

Compound | pIC50 (GDP-loaded KRAS G12D) | pEC50 (GP2D (KRAS G12D) cells) | Mouse Parent AUC ([1]; oral gavage, 30 mg-eq./kg each compound, cassette, plasma, AUClast of parent) [µM·h] | pEC50 (GP2D (KRAS G12D) cells; 96 h) | Mouse Parent AUC [1, 2] [µM·h]
4-(((1S,4R,11R,14aR)-11-(8-ethynyl-7-fluoro-3-hydroxynaphthalen-1-yl)-10,12-difluoro-8-(((2R,7aS)-2-fluorotetrahydro-1H-pyrrolizin-7a(5H)-yl)methoxy)-1,2,3,4,5,13,14,14a-octahydro-1,4-epiminoazepino[1′,2′:1,71azepino[2,3,4-de]quinazolin-15-yl)methyl)-5-methyl-1,3-dioxol-2-one [Example 37] | 9.00 | 9.64 | 0.13 | – | –
Cc1cc(N)nc(-c2c(Cl)c3c4c(nc(OC[C@@]56CCCN5C[C@H](F)C6)nc4c2F)N2C[C@H]4CC[C@@H]([C@H]2CC3)N4Cc2oc(=O)oc2C)c1C(F)(F)F (atropisomer, axis not shown; (aR)) [Example 3, 4-(((1R,4S,14aR)-11-((R)-6-amino-4-methyl-3-(trifluoromethyl)pyridin-2-yl)-12-chloro-10-fluoro-8-(((2R,7aS)-2-fluorotetrahydro-1H-pyrrolizin-7a(5H)-yl)methoxy)-1,2,3,4,5,13,14,14a-octahydro-1,4-epiminoazepino[1′,2′:1,7]azepino[2,3,4-de]quinazolin-15-yl)methyl)-5-methyl-1,3-dioxol-2-one] | 8.33 | – | – | 9.04 | 5.7
C#Cc1c(F)ccc2cccc(-c3nc4c5c(nc(OC[C@@]67CCCN6C[C@H](F)C7)nc5c3F)N3C[C@H]5CC[C@@H]([C@H]3CCC4)N5Cc3oc(=O)oc3C)c12 [Example 1, 4-(((6aR,7S,10R)-2-(8-ethynyl-7-fluoronaphthalen-1-yl)-1-fluoro-13-(((2R,7aS)-2-fluorotetrahydro-1H-pyrrolizin-7a(5H)-yl)methoxy)-5,6,6a,7,8,9,10,11-octahydro-4H-3,11a,12,14,15-pentaaza-7,10-methanocyclohepta[4,5]cycloocta[1,2,3-de]naphthalen-15-yl)methyl)-5-methyl-1,3-dioxol-2-one] | 8.60 | – | – | 8.24 | 3.6
C#Cc1c(F)ccc2cc(O)cc(-c3nc4c5c(nc(OC[C@@]67CCCN6C[C@H](F)C7)nc5c3F)N3C[C@H]5CC[C@@H]([C@H]3CCC4)N5Cc3oc(=O)oc3C)c12 [Example 8, 4-(((6aR,7S,10R)-2-(8-ethynyl-7-fluoro-3-hydroxynaphthalen-1-yl)-1-fluoro-13-(((2R,7aS)-2-fluorotetrahydro-1H-pyrrolizin-7a(5H)-yl)methoxy)-5,6,6a,7,8,9,10,11-octahydro-4H-3,11a,12,14,15-pentaaza-7,10-methanocyclohepta[4,5]cycloocta[1,2,3-de]naphthalen-15-yl)methyl)-5-methyl-1,3-dioxol-2-one] | 8.32 | – | – | 9.31 | 1.1
C#Cc1c(F)ccc2cc(O)cc(-c3nc4c5c(nc(OC[C@@]67CCCN6C[C@H](F)C7)nc5c3F)N3C[C@H]5CC[C@@H]([C@H]3CCC4)N5Cc3oc(=O)oc3C(C)(C)C)c12 [Example 9, 4-(tert-butyl)-5-(((6aR,7S,10R)-2-(8-ethynyl-7-fluoro-3-hydroxynaphthalen-1-yl)-1-fluoro-13-(((2R,7aS)-2-fluorotetrahydro-1H-pyrrolizin-7a(5H)-yl)methoxy)-5,6,6a,7,8,9,10,11-octahydro-4H-3,11a,12,14,15-pentaaza-7,10-methanocyclohepta[4,5]cycloocta[1,2,3-de]naphthalen-15-yl)methyl)-1,3-dioxol-2-one] | 7.92 | – | – | 8.72 | 0.16
C#Cc1c(F)ccc2cc(O)cc(-c3nc4c5c(nc(OC[C@@]67CCCN6C[C@H](F)C7)nc5c3F)N3C[C@H]5CC[C@@H]([C@H]3CCC4)N5Cc3oc(=O)oc3CCCCCCCC)c12 [Example 10, 4-(((6aR,7S,10R)-2-(8-ethynyl-7-fluoro-3-hydroxynaphthalen-1-yl)-1-fluoro-13-(((2R,7aS)-2-fluorotetrahydro-1H-pyrrolizin-7a(5H)-yl)methoxy)-5,6,6a,7,8,9,10,11-octahydro-4H-3,11a,12,14,15-pentaaza-7,10-methanocyclohepta[4,5]cycloocta[1,2,3-de]naphthalen-15-yl)methyl)-5-octyl-1,3-dioxol-2-one] | 8.11 | – | – | 9.80 | 0.44
C#Cc1c(F)ccc2cc(O)cc(-c3nc4c5c(nc(OC[C@@]67CCCN6C[C@H](F)C7)nc5c3F)N3C[C@H]5CC[C@@H]([C@H]3CC[C@H]4C)N5Cc3oc(=O)oc3C)c12 [Example 11, 4-(((4R,6aR,7S,10R)-2-(8-ethynyl-7-fluoro-3-hydroxynaphthalen-1-yl)-1-fluoro-13-(((2R,7aS)-2-fluorotetrahydro-1H-pyrrolizin-7a(5H)-yl)methoxy)-4-methyl-5,6,6a,7,8,9,10,11-octahydro-4H-3,11a,12,14,15-pentaaza-7,10-methanocyclohepta[4,5]cycloocta[1,2,3-de]naphthalen-15-yl)methyl)-5-methyl-1,3-dioxol-2-one] | 8.36 | – | – | 9.92 | 0.96
C#Cc1c(F)ccc2cc(O)cc(-c3nc4c5c(nc(OC[C@@]67CCCN6C[C@H](F)C7)nc5c3F)N3C[C@H]5CC[C@H](N5)[C@H]3CC[C@H]4C)c12 [Example 11-P, 5-ethynyl-6-fluoro-4-((4R,6aR,7S,10R)-1-fluoro-13-(((2R,7aS)-2-fluorotetrahydro-1H-pyrrolizin-7a(5H)-yl)methoxy)-4-methyl-5,6,6a,7,8,9,10,11-octahydro-4H-3,11a,12,14,15-pentaaza-7,10-methanocyclohepta[4,5]cycloocta[1,2,3-de]naphthalen-2-yl)naphthalen-2-ol] | 10.05 | – | – | 10.05 | 0.14
C#Cc1c(F)ccc2cc(O)cc(-c3nc4c5c(nc(OC[C@@]67CCCN6C[C@H](F)C7)nc5c3F)N3C[C@H]5CC[C@@H]([C@H]3CC[C@H]4C)N5Cc3oc(=O)oc3C(C)(C)C)c12 [Example 12, 4-(tert-butyl)-5-(((4R,6aR,7S,10R)-2-(8-ethynyl-7-fluoro-3-hydroxynaphthalen-1-yl)-1-fluoro-13-(((2R,7aS)-2-fluorotetrahydro-1H-pyrrolizin-7a(5H)-yl)methoxy)-4-methyl-5,6,6a,7,8,9,10,11-octahydro-4H-3,11a,12,14,15-pentaaza-7,10-methanocyclohepta[4,5]cycloocta[1,2,3-de]naphthalen-15-yl)methyl)-1,3-dioxol-2-one] | 7.14 | – | – | 9.55 | 0.2
C#Cc1c(F)ccc2cc(O)cc(-c3nc4c5c(nc(OC[C@@]67CCCN6C[C@H](F)C7)nc5c3F)N3C[C@H]5CC[C@@H]([C@@H]3[C@@H](C)[C@H]4C)N5Cc3oc(=O)oc3C)c12 [Example 29, 4-(((7R,8S,8aS,9S,12R)-5-(8-ethynyl-7-fluoro-3-hydroxynaphthalen-1-yl)-4-fluoro-2-(((2R,7aS)-2-fluorotetrahydro-1H-pyrrolizin-7a(5H)-yl)methoxy)-7,8-dimethyl-7,8,8a,9,10,11,12,13-octahydro-1,3,6,13a,14-pentaaza-9,12-methanonaphtho[1,8-ab]heptalen-14-yl)methyl)-5-methyl-1,3-dioxol-2-one] | – | – | – | 9.89 | 0.75
C#Cc1c(F)ccc2cc(OC(=O)C(C)C)cc(-c3nc4c5c(nc(OC[C@@]67CCCN6C[C@H](F)C7)nc5c3F)N3C[C@H]5CC[C@@H]([C@H]3CCC4)N5Cc3oc(=O)oc3C)c12 [Example 30, 5-ethynyl-6-fluoro-4-((6aR,7S,10R)-1-fluoro-13-(((2R,7aS)-2-fluorotetrahydro-1H-pyrrolizin-7a(5H)-yl)methoxy)-15-((5-methyl-2-oxo-1,3-dioxol-4-yl)methyl)-5,6,6a,7,8,9,10,11-octahydro-4H-3,11a,12,14,15-pentaaza-7,10-methanocyclohepta[4,5]cycloocta[1,2,3-de]naphthalen-2-yl)naphthalen-2-yl isobutyrate] | – | – | – | 9.66 | 0.66
